Assay results taken from patent EP1247803A2, “Indolinone compounds suitable for modulation of protein kinases” (Sugen, Inc., priority 1996, dated 1998).

Legend:
PDGF-R = PDGF-R (Homo sapiens, UniProt P09619); experiment: PDGF-R ELISA; format: cell-based
Source text: A PDGF-R ELISA is described in International Patent Publication No. WO 96/40116, published December 19, 1996 by Tang et al.

MET = MET biochemical kinase assay; parameters: species or system human; concentration or dose not given beside the values
How it was run: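 Capture ELISA: anti-rabbit Fc coat, rabbit anti-MET cytoplasmic domain pAb, lysate MET captured, washed. Compound + kinase buffer (ATP, divalent metals). Readout anti-pTyr-HRP/TMB, colorimetric.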

EGFR = biological target: T1, EGFR (Homo sapiens, UniProt P00533); experiment: EGFR ELISA assay (in vitro kinase activity, EGFR captured from A431 cell lysate); format: biochemical; parameters: concentration or dose not given beside the values
T1 construct: Add 7 ug A431 cell lysate per well (EGFR source); endogenous in cells; host or cells: A431
T1 sequence (P00533 25-1210): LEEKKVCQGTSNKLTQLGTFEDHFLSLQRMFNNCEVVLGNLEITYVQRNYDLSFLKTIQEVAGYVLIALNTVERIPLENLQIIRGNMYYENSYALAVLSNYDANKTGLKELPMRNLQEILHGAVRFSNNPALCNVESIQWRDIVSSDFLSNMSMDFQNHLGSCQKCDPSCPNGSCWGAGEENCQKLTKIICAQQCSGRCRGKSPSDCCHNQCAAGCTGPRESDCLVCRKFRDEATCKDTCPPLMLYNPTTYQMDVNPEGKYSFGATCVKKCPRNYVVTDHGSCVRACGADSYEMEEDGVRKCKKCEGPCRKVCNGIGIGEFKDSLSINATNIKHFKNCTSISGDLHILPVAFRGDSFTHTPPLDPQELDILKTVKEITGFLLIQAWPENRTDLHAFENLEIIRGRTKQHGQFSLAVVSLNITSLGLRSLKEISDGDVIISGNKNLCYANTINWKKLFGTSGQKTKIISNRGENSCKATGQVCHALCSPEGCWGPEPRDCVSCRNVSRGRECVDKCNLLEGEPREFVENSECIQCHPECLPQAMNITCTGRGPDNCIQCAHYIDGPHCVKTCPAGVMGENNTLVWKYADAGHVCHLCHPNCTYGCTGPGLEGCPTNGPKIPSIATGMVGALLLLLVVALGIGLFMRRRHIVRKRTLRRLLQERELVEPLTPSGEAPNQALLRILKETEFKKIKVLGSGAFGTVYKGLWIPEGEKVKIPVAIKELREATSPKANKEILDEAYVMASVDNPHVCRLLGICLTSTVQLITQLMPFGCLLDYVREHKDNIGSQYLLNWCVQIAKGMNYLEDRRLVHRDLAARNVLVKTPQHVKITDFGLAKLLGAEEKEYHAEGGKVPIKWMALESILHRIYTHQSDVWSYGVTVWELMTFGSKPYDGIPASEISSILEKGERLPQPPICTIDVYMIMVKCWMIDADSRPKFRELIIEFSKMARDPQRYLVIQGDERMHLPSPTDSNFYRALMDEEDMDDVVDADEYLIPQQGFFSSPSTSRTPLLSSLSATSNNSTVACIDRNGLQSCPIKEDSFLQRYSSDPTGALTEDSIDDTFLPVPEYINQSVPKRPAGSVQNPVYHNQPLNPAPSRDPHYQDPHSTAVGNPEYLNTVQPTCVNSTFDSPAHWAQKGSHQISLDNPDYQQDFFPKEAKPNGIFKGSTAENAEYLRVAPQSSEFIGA
How it was run: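 Receptor autophosphorylation was read by ELISA: anti-phosphotyrosine serum and an HRP-linked secondary with ABTS substrate, absorbance at 410 nm (reference 630 nm). The reaction ran 5 min with 3 µM ATP and 5 mM MnCl2 and was quenched by 20 mM EDTA. Compounds were first incubated 30 min with antibody-captured EGFR from A431 cell lysate.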

PDGF-R, sequence (P09619 33-1106, species assumed): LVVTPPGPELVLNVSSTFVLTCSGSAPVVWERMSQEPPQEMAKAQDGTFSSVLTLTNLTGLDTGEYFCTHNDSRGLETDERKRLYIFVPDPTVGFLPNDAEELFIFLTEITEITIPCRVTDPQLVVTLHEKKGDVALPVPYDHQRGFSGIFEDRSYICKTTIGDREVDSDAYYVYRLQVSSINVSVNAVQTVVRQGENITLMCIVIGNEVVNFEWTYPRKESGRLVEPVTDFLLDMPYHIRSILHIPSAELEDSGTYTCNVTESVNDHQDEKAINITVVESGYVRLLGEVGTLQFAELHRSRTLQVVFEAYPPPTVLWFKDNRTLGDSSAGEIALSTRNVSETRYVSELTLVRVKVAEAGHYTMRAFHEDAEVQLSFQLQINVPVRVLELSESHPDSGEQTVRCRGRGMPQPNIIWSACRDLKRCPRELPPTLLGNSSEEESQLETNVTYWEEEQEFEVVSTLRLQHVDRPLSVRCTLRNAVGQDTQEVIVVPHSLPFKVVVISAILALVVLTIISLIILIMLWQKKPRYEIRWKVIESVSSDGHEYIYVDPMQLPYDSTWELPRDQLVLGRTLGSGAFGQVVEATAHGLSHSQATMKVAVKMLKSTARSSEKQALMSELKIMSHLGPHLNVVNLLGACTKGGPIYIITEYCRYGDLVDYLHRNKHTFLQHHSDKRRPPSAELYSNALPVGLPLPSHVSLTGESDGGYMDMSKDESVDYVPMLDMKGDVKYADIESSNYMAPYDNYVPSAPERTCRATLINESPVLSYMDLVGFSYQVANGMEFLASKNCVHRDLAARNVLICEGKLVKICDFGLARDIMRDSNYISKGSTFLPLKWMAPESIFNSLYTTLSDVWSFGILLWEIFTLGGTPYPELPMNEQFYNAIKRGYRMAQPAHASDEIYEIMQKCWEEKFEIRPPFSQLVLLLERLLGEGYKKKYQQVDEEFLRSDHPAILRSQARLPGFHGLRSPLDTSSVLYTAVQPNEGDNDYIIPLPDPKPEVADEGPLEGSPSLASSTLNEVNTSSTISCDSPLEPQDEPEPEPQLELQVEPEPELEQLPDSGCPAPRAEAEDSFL

Row | SMILES | PDGF Kinase %Inhibition (PDGF-R) [%] | Met Kinase % Inhibition (MET) [%] | Biochem EGFR %Inhibition (EGFR) [%]
1 | O=C1Nc2ccc(S(=O)(=O)Nc3ccc(C(F)(F)F)cc3)cc2C1=Cc1cccc(F)c1O [10734/E08] | 13.0 | 89.1 | 24.2
2 | CCOc1cccc(C=C2C(=O)Nc3ccc(CCCl)cc32)c1O [10734/G02] | 14.8 | 63.6 | 3.4
3 | O=C1Nc2ccc(CCCl)cc2C1=Cc1cccc(F)c1O [10734/G08] | 0.2 | 82.2 | 33.7
4 | CC(C)(C)c1ccc(C=C2C(=O)Nc3ccc(CCCl)cc32)cc1 [10734/G10] | 9.9 | 19.3 | 3.8
5 | O=C1Nc2ccc(CCCl)cc2C1=Cc1cc(Cl)ccc1O [10734/G04] | 16.1 | 72.1 | 62.9
6 | O=C1Nc2ccc(CCCl)cc2C1=Cc1ccc([N+](=O)[O-])cc1 [10734/G06] | -18.8 | 43.1 | 12.5
7 | O=C1Nc2ccc(S(=O)(=O)Nc3ccc(C(F)(F)F)cc3)cc2C1=Cc1ccc(O)c(Br)c1 [10734/E09] | 1.1 | 96.2 | 73.0
8 | O=C1Nc2ccc(CCCl)cc2C1=Cc1cc(Cl)cc(Cl)c1O [10734/G03] | -3.8 | 93.4 | 82.8
9 | O=C1Nc2ccc(CCCl)cc2C1=Cc1ccc(O)c(Br)c1 [10734/G09] | -7.7 | 84.7 | 21.4
10 | O=C1Nc2ccc(CCCl)cc2C1=Cc1ccc(Br)s1 [10734/G11] | -25.4 | 20.2 | 4.1
11 | O=C1Nc2ccc(S(=O)(=O)N3CCOCC3)cc2C1=Cc1cc(Cl)ccc1O [10734/F04] | 25.0 | 76.5 | 3.9
12 | O=C1Nc2ccc(S(=O)(=O)N3CCOCC3)cc2C1=Cc1cccc(F)c1O [10734/F08] | -6.0 | 66.3 | -23.6
13 | O=C1Nc2ccc(S(=O)(=O)N3CCOCC3)cc2C1=Cc1ccc([N+](=O)[O-])o1 [10718/F11] | – | 31.3 | -3.9
14 | O=C1Nc2ccc(I)cc2C1=Cc1ccc(O)cc1 [10719/B07] | – | 52.2 | 23.7
15 | O=C1Nc2ccc(S(=O)(=O)N3CCOCC3)cc2C1=Cc1ccc(O)c(Br)c1 [10734/F09] | -17.4 | 93.9 | 3.1
16 | CCOC(=O)c1cc(C=C2C(=O)Nc3ccc(CCCl)cc32)oc1C [10718/G06] | – | 61.0 | -18.7
17 | CC(C)(C)c1ccc(C=C2C(=O)Nc3ccc(S(=O)(=O)Nc4ccc(C(F)(F)F)cc4)cc32)cc1 [10734/E10] | 29.8 | 27.9 | -5.0
18 | O=C1Nc2c(Br)cc(Br)cc2C1=Cc1ccc(F)cc1C(F)(F)F [10719/A11] | – | 34.9 | 10.5
19 | COc1cc(Br)c(O)c(C=C2C(=O)Nc3ccc(S(=O)(=O)N4CCOCC4)cc32)c1 [10718/F03] | – | 87.9 | 22.5
20 | CCOc1ccc(C=C2C(=O)Nc3ccc(Br)c(C)c32)cc1OC [10719/C02] | – | 41.3 | 10.2
21 | Cc1c(Br)ccc2c1C(=Cc1ccc(N(C)C)cc1)C(=O)N2 [10719/C08] | – | 57.5 | -10.2
22 | CC(C)(C)c1ccc(C=C2C(=O)Nc3ccc(S(=O)(=O)N4CCOCC4)cc32)cc1 [10734/F10] | 25.8 | 44.8 | -8.3
23 | O=C1Nc2c(Br)cc(Br)cc2C1=Cc1cccc([N+](=O)[O-])c1 [10719/A10] | – | 13.4 | 8.2
24 | Cn1cccc1C=C1C(=O)Nc2ccc(I)cc21 [10717/B04] | – | 70.0 | 10.3
25 | CCOc1cccc(C=C2C(=O)Nc3ccc(S(=O)(=O)N4CCOCC4)cc32)c1O [10734/F02] | 10.4 | 55.0 | 0.7
26 | COc1cc(OC)c(C=C2C(=O)Nc3c(Br)cc(Br)cc32)c(OC)c1 [10719/A06] | – | -7.0 | 18.2
27 | Cc1c(Br)ccc2c1C(=Cc1ccc(F)cc1Cl)C(=O)N2 [10719/C09] | – | 8.9 | -0.1

Row | SMILES | PDGF Kinase %Inhibition (PDGF-R) [%] | Met Kinase % Inhibition (MET) [%] | Biochem EGFR %Inhibition (EGFR) [%]
28 | CCN(CC)c1ccc(C=C2C(=O)Nc3ccc(S(=O)(=O)Nc4ccc(C(F)(F)F)cc4)cc32)c(O)c1 [10734/E05] | 17.9 | 63.6 | 7.9
29 | COc1ccc(C=C2C(=O)Nc3ccc(Br)c(C)c32)c(OC)c1 [10719/C04] | – | 14.7 | 14.4
30 | O=C1Nc2ccc(S(=O)(=O)Nc3ccc(C(F)(F)F)cc3)cc2C1=Cc1ccc(Br)s1 [10734/E11] | 16.1 | 67.1 | -8.0
31 | O=C1Nc2ccc(S(=O)(=O)Nc3ccc(C(F)(F)F)cc3)cc2C1=Cc1cc(Br)cc(Br)c1O [10734/E07] | 8.2 | 100.8 | 82.4
32 | CCN(CC)c1ccc(C=C2C(=O)Nc3ccc(S(=O)(=O)N4CCOCC4)cc32)c(O)c1 [10734/F05] | -1.1 | 73.8 | -15.6
33 | O=C1Nc2c(Br)cc(Br)cc2C1=Cc1ccc(O)cc1 [10719/A07] | – | 68.1 | 15.5
34 | CCN(CC)c1ccc(C=C2C(=O)Nc3ccc(CCCl)cc32)c(O)c1 [10734/G05] | 2.9 | 57.7 | -0.3
35 | COc1cc(Br)c(O)c(C=C2C(=O)Nc3ccc(CCCl)cc32)c1 [10718/G03] | – | 77.9 | 57.3
36 | COc1ccc(C=C2C(=O)Nc3ccc(I)cc32)c(OC)c1 [10719/B04] | – | 38.4 | 29.9
37 | O=C1Nc2ccc(S(=O)(=O)N3CCOCC3)cc2C1=Cc1cc(Br)cc(Br)c1O [10734/F07] | -5.1 | 95.7 | 33.7
38 | Cc1c(O)ccc(C=C2C(=O)Nc3ccc(CCCl)cc32)c1O [10718/G09] | – | 27.0 | -15.4
39 | O=C1Nc2ccc(I)cc2C1=Cc1cccc([N+](=O)[O-])c1 [10719/B10] | – | 53.4 | -1.2
40 | O=C1Nc2ccc(S(=O)(=O)N3CCOCC3)cc2C1=Cc1cc(Cl)cc(Cl)c1O [10734/F03] | -24.1 | 86.8 | 24.8
41 | O=C1Nc2ccc(I)cc2C1=Cc1c[nH]c2ccccc12 [10717/B06] | – | 89.5 | -30.8
42 | CCc1c(C)[nH]c(C=C2C(=O)Nc3ccc(Br)c(C)c32)c1C [10719/C05] | – | 35.5 | 27.4
43 | O=C1Nc2ccc(CCCl)cc2C1=Cc1cc(Br)cc(Br)c1O [10734/G07] | -25.0 | 96.6 | 51.1
44 | COc1cc(OC)c(C=C2C(=O)Nc3ccc(I)cc32)c(OC)c1 [10719/B06] | – | 22.5 | -0.5
45 | CCOc1ccc(C=C2C(=O)Nc3c(Br)cc(Br)cc32)cc1OC [10719/A02] | – | 40.9 | 43.0
46 | O=C1Nc2ccc(I)cc2C1=Cc1cccs1 [10717/B03] | – | 90.5 | 7.3
47 | CCOC(=O)CCc1c(C(=O)OCC)[nH]c(C=C2C(=O)Nc3ccc(CCCl)cc32)c1CC(=O)OCC [10718/G05] | – | 60.3 | 2.8
48 | O=C1Nc2ccc(CCCl)cc2C1=Cc1ccco1 [10718/G10] | – | 10.8 | -7.5
49 | O=C1Nc2ccc(I)cc2C1=Cc1ccc(F)cc1Cl [10719/B09] | – | 23.5 | -17.7
50 | O=C1Nc2ccc(S(=O)(=O)Nc3ccc(C(F)(F)F)cc3)cc2C1=Cc1ccc([N+](=O)[O-])cc1 [10734/E06] | 13.5 | 50.6 | 6.3
51 | CCOC(=O)c1c(C)[nH]c(C=C2C(=O)Nc3ccc(S(=O)(=O)N4CCOCC4)cc32)c1C [10718/F02] | – | 66.7 | 17.8
52 | CCOC(=O)c1cc(C=C2C(=O)Nc3ccc(S(=O)(=O)N4CCOCC4)cc32)oc1C [10718/F06] | – | 42.5 | -9.1
53 | O=C1Nc2ccc(S(=O)(=O)N3CCOCC3)cc2C1=Cc1ccc2ccccc2c1O [10718/F04] | – | 78.1 | 1.2
